From patent publication US20140357841A1, “Method for stabilizing polypeptide into alpha helix” (Peking University Shenzhen Graduate School, priority 2013, published 2014)
Marks after values point to notes of the source that are not given here. Values belong to the substance of their own block, whether it stands above or below them.

Columns and labels:
[1] = circular dichroism (CD) detection of alpha helix content in PBS; format: physicochemical; parameters: [θ]215 / [θ]207 / [θ]190: unit not given here; settings: for [θ]190 / [θ]207 / [θ]215 / [θ]215/[θ]207: CD; for [θ]190 / [θ]207 / [θ]215 / [θ]215/[θ]207 / relative content of alpha helix: PBS pH = 7.4, 22° C., 10 mM; for relative content of alpha helix: [θ]215(x)/[θ]215(ASOB), ASOB is the standard; for alpha helix stabilization / content by CD (in words): PBS 10 mM
Protocol: The obtained compound 4 is dissolved into of PBS (PH=7.4, 10 mM) for obtaining a CD diagram.
fH=([θ]obs215-[θ]C)/([θ]∞215-[θ]C);
wherein T=22° C.; κ=4.0; Np=6 (for pentapeptide); ι=0.1 (cm); C is a molarity M of the samples of the two isomers.

[2] = CD comparison in PBS and 50% trifluoroethanol (TFE) solution; format: physicochemical; settings: CD in PBS versus 50% TFE solution
Text: FIG. 2 is a CD diagram of the Ac-cyclo(1,5)-monoS5AAAC-NH2 sulfoxide B in the PBS and a 50% trifluoroethanol (TFE) solution according to the Example 1 of the present invention.

- [θ]190 [1]: 39352
- [θ]207 [1]: −13684
- [θ]215 [1]: −13537
- [θ]215/[θ]207 [1]: 0.99
- relative content of alpha helix [1]: 0.86**
Substance: Ac-(cyclo2,6)-R[KAAAD]-NH2 [control, reference compound]

- [θ]190 [1]: 26306
- [θ]207 [1]: −15556
- [θ]215 [1]: −13558
- [θ]215/[θ]207 [1]: 0.87
- relative content of alpha helix [1]: 0.87
Substance: Ac-cyclo(1,5)-monoS5AIAC-NH2 sulfoxide B [ISOB]
- alpha helix stabilization / content by CD (in words) [1]: identically high contents of the alpha helixes

The remaining lines, values behind:

Substance: Ac-cyclo(1,5)-monoS5AAAC-NH2 sulfoxide A [ASOA]
- [θ]190 [1]: −14594
- [θ]207 [1]: −4667
- [θ]215 [1]: 672
- [θ]215/[θ]207 [1]: −0.14
- relative content of alpha helix [1]: −0.04
- improvement of the effects of stabilizing the alpha helix compared to conventional amido bond stabilization ([1]; versus control of Table 3, identical intermediate sequences): 14%

Substance: Ac-cyclo(1,5)-monoS6AAAC-NH2 sulfoxide B
- alpha helix stabilization / content by CD (in words) [1]: has effects of stabilizing alpha helix

Substance: Ac-cyclo(1,5)-monoS5AAAC-NH2 sulfoxide B [ASOB]
- [θ]190 [1]: 25987
- [θ]207 [1]: −16054
- [θ]215 [1]: −15666
- [θ]215/[θ]207 [1]: 0.98
- alpha helix stabilization / content by CD (in words) [1]: has stable alpha helixes
- relative content of alpha helix [1]: 1.00
- effect of TFE buffer solution on the alpha helix [2]: no improvements

Substance: Ac-cyclo(1,5)-monoS5AGAC-NH2 sulfoxide B [GSOB]
- [θ]190 [1]: 9121
- [θ]207 [1]: −7777
- [θ]215 [1]: −7920
- [θ]215/[θ]207 [1]: 1.02
- alpha helix stabilization / content by CD (in words) [1]: identically high contents of the alpha helixes
- relative content of alpha helix [1]: 0.51
